Assay results from the NIST ThermoML archive (doi:10.1021/je900550v).

Conditions: 101.33 kPa, Liquid; for speed of sound: Pulse-echo method; for mass density: Vibrating tube method

CCCCC(=O)[O-].C[NH2+]CCO [2-hydroxy-N-methylethanaminium pentanoate]
Conditions	mass density [kg/m3]	speed of sound [m/s]	viscosity [mPa·s]
278.15 K	1029.68	1616.6	–
278.4 K	1029.52	1615.6	–
278.65 K	1029.35	1614.7	–
278.9 K	1029.18	1613.8	–
279.15 K	1029.01	1612.8	–
279.4 K	1028.85	1611.9	–
279.65 K	1028.68	1611	–
279.9 K	1028.51	1610.1	–
280.15 K	1028.35	1609.1	–
280.4 K	1028.18	1608.2	–
280.65 K	1028.01	1607.3	–
280.9 K	1027.85	1606.4	–
281.15 K	1027.68	1605.5	–
281.4 K	1027.51	1604.6	–
281.65 K	1027.34	1603.7	–
281.9 K	1027.18	1602.8	–
282.15 K	1027.01	1601.9	–
282.4 K	1026.84	1601	–
282.65 K	1026.67	1600.1	–
282.9 K	1026.51	1599.2	–
283.15 K	1026.34	1598.3	–
283.4 K	1026.17	1597.5	–
283.65 K	1026.01	1596.6	–
283.9 K	1025.84	1595.7	–
284.15 K	1025.67	1594.8	–
284.4 K	1025.5	1593.9	–
284.65 K	1025.34	1593.1	–
284.9 K	1025.17	1592.2	–
285.15 K	1025	1591.3	–
285.4 K	1024.83	1590.5	–
285.65 K	1024.66	1589.6	–
285.9 K	1024.5	1588.8	–
286.15 K	1024.33	1587.9	–
286.4 K	1024.16	1587.1	–
286.65 K	1023.99	1586.2	–
286.9 K	1023.83	1585.4	–
287.15 K	1023.66	1584.5	–
287.4 K	1023.49	1583.7	–
287.65 K	1023.32	1582.8	–
287.9 K	1023.15	1582	–
288.15 K	1022.99	1581.2	450.93
288.4 K	1022.82	1580.3	–
288.65 K	1022.65	1579.5	–
288.9 K	1022.48	1578.7	–
289.15 K	1022.31	1577.8	–
289.4 K	1022.14	1577	–
289.65 K	1021.97	1576.2	–
289.9 K	1021.81	1575.3	–
290.15 K	1021.64	1574.5	–
290.4 K	1021.47	1573.7	–
290.65 K	1021.3	1572.9	368.78
290.9 K	1021.13	1572	–
291.15 K	1020.96	1571.2	–
291.4 K	1020.79	1570.4	–
291.65 K	1020.62	1569.6	–
291.9 K	1020.45	1568.8	–
292.15 K	1020.28	1568	–
292.4 K	1020.12	1567.2	–
292.65 K	1019.95	1566.3	–
292.9 K	1019.78	1565.5	–
293.15 K	1019.61	1564.7	319.63
293.4 K	1019.44	1563.9	–
293.65 K	1019.27	1563.1	–
293.9 K	1019.1	1562.3	–
294.15 K	1018.93	1561.5	–
294.4 K	1018.76	1560.7	–
294.65 K	1018.59	1559.9	–
294.9 K	1018.42	1559.1	–
295.15 K	1018.25	1558.3	–
295.4 K	1018.08	1557.5	–
295.65 K	1017.91	1556.7	273.03
295.9 K	1017.74	1555.9	–
296.15 K	1017.57	1555.1	–
296.4 K	1017.4	1554.3	–
296.65 K	1017.23	1553.5	–
296.9 K	1017.06	1552.7	–
297.15 K	1016.89	1551.9	–
297.4 K	1016.72	1551.1	–
297.65 K	1016.55	1550.3	–
297.9 K	1016.38	1549.6	–
298.15 K	1016.21	1548.8	234.44
298.4 K	1016.03	1548	–
298.65 K	1015.86	1547.2	–
298.9 K	1015.69	1546.4	–
299.15 K	1015.52	1545.6	–
299.4 K	1015.35	1544.8	–
299.65 K	1015.19	1544	–
299.9 K	1015.02	1543.3	–
300.15 K	1014.85	1542.5	–
300.4 K	1014.69	1541.7	–
300.65 K	1014.52	1540.9	205.32
300.9 K	1014.36	1540.1	–
301.15 K	1014.19	1539.3	–
301.4 K	1014.03	1538.5	–
301.65 K	1013.86	1537.8	–
301.9 K	1013.7	1537	–
302.15 K	1013.53	1536.2	–
302.4 K	1013.36	1535.4	–
302.65 K	1013.2	1534.6	–
302.9 K	1013.03	1533.9	–
303.15 K	1012.86	1533.1	175.84
303.4 K	1012.7	1532.3	–
303.65 K	1012.53	1531.5	–
303.9 K	1012.37	1530.7	–
304.15 K	1012.2	1530	–
304.4 K	1012.03	1529.2	–
304.65 K	1011.87	1528.4	–
304.91 K	1011.7	1527.6	–
305.15 K	1011.53	1526.8	–
305.4 K	1011.37	1526.1	–
305.65 K	1011.19	1525.3	147.42
305.9 K	1011.03	1524.5	–
306.15 K	1010.86	1523.8	–
306.4 K	1010.69	1523	–
306.65 K	1010.52	1522.2	–
306.9 K	1010.36	1521.5	–
307.15 K	1010.19	1520.7	–
307.4 K	1010.02	1519.9	–
307.65 K	1009.85	1519.1	–
307.9 K	1009.68	1518.4	–
